Legend:
GLI1 mRNA expression [1] = assay: RT-qPCR GLI1 mRNA expression in ASZ001 BCC cells; format: cell-based, mouse; settings: read-out: RT-qPCR, IC50 ASZ001
Procedure: (§1) ASZ001 and Sufu-KO cells were seeded in 96-well plates (10,000/well, 100 μL) and incubated overnight under growth conditions. On the second day, ‘growth’ media was removed and replaced by ‘assay’ media (100 μL). On the third day, cells were treated with a serial dilution of drugs or DMSO for 48 h. mRNA expression was determined through Taqman Fast Cells-to-CT Kit (#4399003) per the manufacturer's instructions. In brief, cells were washed with chilled PBS, then mixed with lysis solution containing DNase I and incubated at RT for 5 min. Stop solution was then added to quench the lysis reagents. cDNA was then synthesized through a BioRad MyCycler following addition of reverse transcriptase. Finally, the cDNA was amplified through an ABI 7500 system following addition of Taqman Fast Universal PCR Master Mix and Taqman Gene Expression Primer. Relative gene expression levels were computed by the ΔΔCt method. Values represent mRNA expression relative to DMSO control (set at 1.0). Data were analyzed using GraphPad Prism, and IC50 values are the mean±SEM for at least two separate experiments performed in triplicate. Primers used are as follows: mouse ActB (Mm00607939_s1); mouse GLI1 (Mm00494645_ml); mouse Gli2 (Mm01293117_ml); mouse Ptch1 (Mm00436026_ml); mouse Hhip (Mm00469580_ml).

GLI1 mRNA expression [2] = assay: RT-qPCR GLI1 mRNA expression in OHCs-stimulated C3H10T1/2 MEFs; format: cell-based, mouse; settings: mean ± SEM; for IC50: Table 4, racemates and enantiomers, read-out: RT-qPCR, IC50 C3H10T1/2
Procedure: as §1
C3H10T1/2 MEFs were seeded in 24-well plates (50,000/well, 500 μL). Following 24 h incubation, the ‘growth’ media was removed and replaced with ‘assay’ media (500 μL). On the third day, cells were treated with either DMSO, OHCs, or OHCs+drugs. Following a 24 h incubation, gene expression analysis was carried out following identical protocols as described above.

GLI1 mRNA expression [3] = assay: RT-qPCR GLI1 mRNA expression in Sufu-KO MEFs; format: cell-based, mouse; settings: read-out: RT-qPCR, IC50 Sufu-KO
Procedure: as §1

GLI1-ZFD [4] = target: T1, GLI1-ZFD (Homo sapiens, UniProt P08151); assay: Microscale thermophoresis (MST) binding to GLI1-ZFD
T1 construct: GLI1-ZFD Expression and Purification; made in house
T1 sequence (P08151 234-388 limits assumed): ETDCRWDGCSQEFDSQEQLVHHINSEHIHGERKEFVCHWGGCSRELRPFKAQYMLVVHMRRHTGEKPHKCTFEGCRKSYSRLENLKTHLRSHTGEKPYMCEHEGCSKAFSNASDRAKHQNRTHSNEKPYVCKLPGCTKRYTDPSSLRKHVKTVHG
Procedure: The protein expression and purification experiments followed the previous reported procedures [C. A. Maschinot, et al., Synthesis and evaluation of third generation vitamin D3 analogues as inhibitors of hedgehog signaling. Euro. J. Med. Chem. 162 (2019) 495-506].
GLI1 protein labeling was performed through the Monolith Protein Labeling Kit RED-NHS 2nd Generation (Nanotemper #MO-LO11) per the manufacturer's instructions. Briefly, GLI1 (100 μg, 1 mg/mL) underwent buffer exchange to remove incompatible ingredients like Tris or DTT. Proteins in the Labeling Buffer were incubated with freshly prepared dye (˜3-fold excess of dye) for 30 min at RT in the dark. Unreacted ‘free’ dye was removed by a gel-filtration column. Protein concentration and degree-of-labeling were calculated by measuring absorption at 280 nm and 650 nm. For each assay, 200 nM GLI1 in MST Buffer was mixed with compound dilution in DMSO (DMSO<5%, v/v). The mixture was then loaded to a capillary and the thermophoresis was subsequently determined through Monolith NT.115 station. Results were analyzed by MO.Affinity Analysis software and visualized by Graphpad Prism. MST Buffer: 50 mM HEPES, pH 8.3, 100 mM NaCl.

GLI1-ZFD [5] = target: T1, GLI1-ZFD; assay: Surface plasmon resonance (SPR) binding to GLI1-ZFD; settings: analyte 100 to 3.125 μM, 1:1 binding fit
Procedure: SPR studies were performed on a Biacore T200 as a contract service by Creative Biolabs (Shirley, NY, USA), utilizing the same procedure described previously [G. Yernale, A comprehensive review on the biological interest of quinoline and its derivatives. Bioorg. Med. Chem. 32 (2021) 115973]. Briefly, GLI1 protein was immobilized on a Series S CM5 sensor chip (GE Healthcare), and various concentrations of compound 1a/b were injected (flow rate, 30 μL/min) with a contact time of 180 s and dissociation time of 600 s. Kinetic parameters were determined by the Biacore T200 evaluation software.

DAOY (MB) = assay: MTS anti-proliferative assay in DAOY cells; format: cell-based; settings: Table 8, 48 h, mean ± SEM
Procedure: (§2) Cell viability was assessed by MTS proliferation assay kit (Promega) per manufacturer's protocol. Briefly, 2×10^4 cells were plated in a 96-well plate in 100 μL growth medium to make the cell population at ˜80% confluence. After 24 h, 1 μL drug solution was added to each well. DMSO was used as vehicle compound. After 48 h incubation (37° C., 5% CO2), 20 μL of freshly prepared 3-(4,5-dimethylthiazol-2-yl)-5-(3-carboxymethoxyphenyl)-2-(4-sulfophenyl)-2H-tetrazolium (MTS)/phenazine methosulfate (PMS) solution was added to each well, and the plate was returned to the incubator for 1 h. Absorbance at 490 nm was recorded, and the result was analyzed by GraphPad Prism 5. GI50 values represent mean±SEM for at least two separate experiments performed in triplicate.

ASZ001 cells = assay: MTS anti-proliferative assay in ASZ001 cells; format: cell-based, murine; settings: Ave ± SEM
Procedure: as §2

PANC-1 (pancreatic) = assay: MTS anti-proliferative assay in PANC-1 cells; format: cell-based; settings: Table 8, 48 h, mean ± SEM
Procedure: as §2

Hhip mRNA expression = assay: RT-qPCR Hhip mRNA expression in ASZ001 cells; format: cell-based, mouse; settings: 10 μM, FIG. 4A
Procedure: as §1

GLI1 protein levels = assay: Western blot GLI1 protein expression in ASZ001 cells; format: cell-based, murine; settings: 25 μM
Procedure: (§3) ASZ001 cells were plated as described above and treated with drugs or vehicle control. Following incubation, cells were washed with chilled PBS and lysed with RIPA buffer containing […] PMSF protease inhibitor (Thermo Scientific #26978). Supernatant was collected following 15 min centrifugation at 12,000 rpm and 4° C. Protein concentrations from cell extracts were determined through the BCA kit (Pierce #23228) per the manufacturer's instructions. Proteins from either cell lysate or cell-free biochemical assay were then loaded on 12% SDS-PAGE. Following electrophoresis, proteins were transferred onto nitrocellulose membrane at 100 V for 120 min at 4° C. On a clean tray with constant gentle shaking, the membrane was sequentially submerged in 5% BSA for 1 h, and incubated with the primary antibody indicated overnight at 4° C. After washes with TBST, the appropriate secondary antibody was added to the tray for a 2 h incubation at RT. Chemiluminescent detection on film was visualized using ECL reagents (BioRad #1705060) and subsequently quantitated using Image J (http://imagej.nih.gov). Primary antibodies were used at 1:2000 dilution and are as follows: GLI1 (#MA5-32553); Gli2 (#PA5-79314); β-Actin (#PA1-16889). Secondary antibody (Goat anti-Rabbit, #32460) was used at a 1:5000 dilution. All antibodies were purchased from Invitrogen.

GLI2 protein expression = assay: Western blot GLI2 protein expression in ASZ001 cells; format: cell-based, murine; settings: 25 μM
Procedure: as §3

[6] = Table 4, racemates and enantiomers, mean ± SEM
[7] = Mus musculus, ASZ001, Table 7, GLI1 mRNA, Ave ± SEM
[8] = Mus musculus, ASZ001, Table 7, 48 h
[9] = Mus musculus, Table 7, GLI1 mRNA, Ave ± SEM

SMILES: CCN(CC)c1ccc(C(Nc2ccccn2)c2ccc3ccc(C)nc3c2O)cc1 (single isomer, unassigned) [Compound 1a]
- IC50 (GLI1 mRNA expression [1]; Mus musculus, ASZ001, Table 4, racemates and enantiomers, mean ± SEM): 1.8 ± 0.7 µM
- IC50 (GLI1 mRNA expression [2]): 0.71 ± 0.26 µM
- IC50 (GLI1 mRNA expression [3]; [6]): 1.7 ± 0.6 µM
- Kd (GLI1-ZFD [4]; Table 4, mean ± SEM): 12.9 ± 1.6 µM
- Ka (GLI1-ZFD [5]; listed as 1a (R)): 171 M⁻¹ s⁻¹
- Kd (GLI1-ZFD [5]; listed as 1a (R)): 0.00165 s⁻¹
- Rmax (GLI1-ZFD [5]; listed as 1a (R)): 62.84
- Kd (GLI1-ZFD [5]; read-out: KD): 9.66 µM

SMILES: CCN(CC)c1ccc(C(Nc2ccccn2)c2ccc3ccc(C)nc3c2O)cc1 (single isomer, unassigned) [Compound 1b]
- IC50 (GLI1 mRNA expression [1]; [6]): 1.9 ± 0.6 µM
- IC50 (GLI1 mRNA expression [2]): 0.12 ± 0.08 µM
- IC50 (GLI1 mRNA expression [3]; [6]): 0.75 ± 0.38 µM
- Kd (GLI1-ZFD [4]; Table 4, mean ± SEM): 22.1 ± 4.3 µM
- Ka (GLI1-ZFD [5]; listed as 1b (S)): 70.3 M⁻¹ s⁻¹
- Kd (GLI1-ZFD [5]; listed as 1b (S)): 0.00131 s⁻¹
- Rmax (GLI1-ZFD [5]; listed as 1b (S)): 78.64
- Kd (GLI1-ZFD [5]; read-out: KD): 18.7 µM

SMILES: CCN(CC)c1ccc(CNc2ccccn2)cc1 [Compound 14, N-(4-Diethylaminobenzyl)pyridin-2-amine]
- GI50 (DAOY (MB); Homo sapiens, Daoy): 45.2 ± 7.7 µM
- IC50 (GLI1 mRNA expression [1]; Mus musculus, ASZ001, Table 5, GLI1 mRNA, Ave ± SEM): 10 ± 3.2 µM
- GI50 (ASZ001 cells; Mus musculus, ASZ001, Table 5, 48 h): 34.9 ± 6.1 µM
- IC50 (GLI1 mRNA expression [3]; Mus musculus, Table 5, GLI1 mRNA, Ave ± SEM): > 25 µM
- Kd (GLI1-ZFD [4]; Table 5, Ave ± SEM): > 125 µM
- GI50 (PANC-1 (pancreatic); Homo sapiens, PANC-1): 61.9 ± 9.3 µM

SMILES: Cc1ccc2ccc(C(Nc3ccccn3)c3ccccc3)c(O)c2n1 (centres unmarked) [Compound 34, 7-(Phenyl(pyridin-2-ylamino)methyl)-2-methylquinolin-8-ol]
- GI50 (DAOY (MB); Homo sapiens, Daoy): > 100 µM
- IC50 (GLI1 mRNA expression [1]; [7]): 21.3 ± 5.2 µM
- GI50 (ASZ001 cells; [8]): > 100 µM
- IC50 (GLI1 mRNA expression [3]; [9]): 7.2 ± 2 µM
- binding to GLI1 (in words) (GLI1-ZFD [4]; MST binding assay): do not bind GLI1
- Kd (GLI1-ZFD [4]; Table 7, Ave ± SEM): > 125 µM
- GI50 (PANC-1 (pancreatic); Homo sapiens, PANC-1): 94.3 ± 19.5 µM

SMILES: Cc1ccc2ccc(C(Nc3ccccn3)c3ccc(N(C)C)cc3)c(O)c2n1 (centres unmarked) [Compound 42, 7-((4-Dimethylaminophenyl)(pyridin-2-ylamino)methyl)-2-methylquinolin-8-ol]
- GI50 (DAOY (MB); Homo sapiens, Daoy): 18.3 ± 3.6 µM
- IC50 (GLI1 mRNA expression [1]; [7]): 1.5 ± 0.6 µM
- GI50 (ASZ001 cells; [8]): 10.1 ± 1.8 µM
- IC50 (GLI1 mRNA expression [3]; [9]): 1.2 ± 0.3 µM
- GI50 (PANC-1 (pancreatic); Homo sapiens, PANC-1): 45.4 ± 10.3 µM

SMILES: Cc1ccc2ccc(C(Nc3ccccn3)c3ccc(N4CCCC4)cc3)c(O)c2n1 (centres unmarked) [Compound 43, 7-((4-(Pyrrolidin-1-yl)phenyl)(pyridin-2-ylamino)methyl)-2-methylquinolin-8-ol]
- GI50 (DAOY (MB); Homo sapiens, Daoy): 12.8 ± 1.9 µM
- IC50 (GLI1 mRNA expression [1]; [7]): 1.3 ± 0.3 µM
- GI50 (ASZ001 cells; [8]): 8.8 ± 2.4 µM
- IC50 (GLI1 mRNA expression [3]; [9]): 1.2 ± 0.6 µM
- GI50 (PANC-1 (pancreatic); Homo sapiens, PANC-1): 29.6 ± 5.2 µM

SMILES: Cc1ccc2ccc(C(Nc3ccccn3)c3ccc(N4CCCCC4)cc3)c(O)c2n1 (centres unmarked) [Compound 44, 7-((4-(Piperidin-1-yl)phenyl)(pyridin-2-ylamino)methyl)-2-methylquinolin-8-ol]
- GI50 (DAOY (MB); Homo sapiens, Daoy): 22.6 ± 4 µM
- IC50 (GLI1 mRNA expression [1]; [7]): 4 ± 0.8 µM
- GI50 (ASZ001 cells; [8]): 27.7 ± 5.3 µM
- IC50 (GLI1 mRNA expression [3]; [9]): 4.5 ± 1 µM
- GI50 (PANC-1 (pancreatic); Homo sapiens, PANC-1): 52.7 ± 5.3 µM

SMILES: Cc1ccc2ccc(C(Nc3ccccn3)c3ccc(N4CCOCC4)cc3)c(O)c2n1 (centres unmarked) [Compound 45, 7-((4-Morpholinophenyl)(pyridin-2-ylamino)methyl)-2-methylquinolin-8-ol]
- GI50 (DAOY (MB); Homo sapiens, Daoy): 24.2 ± 5.8 µM
- IC50 (GLI1 mRNA expression [1]; [7]): 2.2 ± 0.8 µM
- GI50 (ASZ001 cells; [8]): 18.3 ± 1.5 µM
- IC50 (GLI1 mRNA expression [3]; [9]): 1.4 ± 0.4 µM
- GI50 (PANC-1 (pancreatic); Homo sapiens, PANC-1): 61.1 ± 11.5 µM

SMILES: CN(C)c1ccccc1CN1CCCN(Cc2ccccc2N(C)C)C1c1ccncc1 [GANT61, reference compound]
- GI50 (DAOY (MB)): 27.2 ± 3.6 µM
- IC50 (GLI1 mRNA expression [1]; Table 5, GLI1 mRNA, Ave ± SEM): 11.1 ± 1.5 µM
- % Gli1 Expression (GLI1 mRNA expression [2]; C3H10T1/2 MEFs, 10 μM, relative to Hh-agonist OHCs (set as 100%)): 72.4 ± 5.6%
- GI50 (ASZ001 cells; Table 5, 48 h): 57.5 ± 14 µM
- expression of Hhip mRNA (in words) (Hhip mRNA expression): more effective at reducing Hhip expression compared to GLI1
- GLI1 protein levels (in words) (GLI1 protein levels): significantly down-regulated
- IC50 (GLI1 mRNA expression [3]; Table 5, GLI1 mRNA, Ave ± SEM): 5.3 ± 1.4 µM
- Kd (GLI1-ZFD [4]; Table 5, Ave ± SEM): 65.2 ± 15.2 µM
- GI50 (PANC-1 (pancreatic)): 35.2 ± 7.5 µM
- GLI2 protein expression (in words) (GLI2 protein expression): inactive
